The subject of the assay is Eschericia coli strain ATCC25922. Kind of assay: standard microdilution assay to determine minimum inhibitory concentrations (MICs). The note with it: Escherichia coli, ATCC25922, Eschericia coli strain ATCC25922, standard microdilution assay; read-out: E. coli ATCC25922 MIC. Type of assay: cell-based. The method, boiled down: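 Broth microdilution per CLSI protocols, typically 100 µL final volume, against E. coli ATCC25922. MIC values scored as +/− against a cutoff of 16 micrograms/ml.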
Background: Broth dilution looks for growth in wells or tubes with falling amounts of substance.
Usually MIC stands for the smallest concentration in the dilution series that meets the test's criterion for growth inhibition. `NCCCN(CCc1ccncc1)Cc1ccc(-c2c[nH]c(NC(=O)Nc3ccccc3OC(F)(F)F)nc2=O)cc1` [Compound 347]: the MIC was > 16 µg/mL.
With `NCCCN(Cc1ccc(-c2c[nH]c(NC(=O)Nc3ccccc3OC(F)(F)F)nc2=O)cc1)CC1CC1` [Compound 312], the MIC is < 16 µg/mL.
As for `CN(C)c1ccc(NC(=O)Nc2ccn(CCC[C@H](CCCNC(=N)N)NCCCN)c(=O)n2)cc1` [Compound 152], the MIC is > 16 µg/mL.
The result for `CN(C(=O)C[C@H](CCCNC(=N)N)NCCCCNC(=N)N)C1CNC(NC(N)=O)=NC1=O` (stereo partly shown) [Compound 109] reads < 16 µg/mL.
The result for `N=C(N)NCc1ccc(-n2ccc(N)nc2=O)cc1` [Compound 127] reads > 16 µg/mL; that for `N=C(N)NCCC[C@@H](CCCn1ccc(NC(=O)Nc2ccc(F)c(F)c2)nc1=O)NCCCN` [Compound 160], > 16 µg/mL; that for `N=C(N)NCCCCCN1CCC(c2c[nH]c(NC(=O)Nc3cccc(Cl)c3F)nc2=O)CC1` [Compound 583], > 16 µg/mL.
The result for `Cn1ncc(C(=O)Nc2ccn(CCC[C@H](CCCNC(=N)N)NCCCN)c(=O)n2)c1Cl` [Compound 163] reads < 16 µg/mL; that for `Cc1ccc(NC(=O)Nc2nc(=O)c(-c3ccc(CNCCCN)c(F)c3)c[nH]2)cc1C(F)(F)F` [Compound 481], > 16 µg/mL; that for `NCCCN(CCCN)Cc1ccc(-c2c[nH]c(Nc3nc4ccccc4[nH]3)nc2=O)cc1` [Compound 473], > 16 µg/mL.
On to `O=C(Nc1nc(=O)c(-c2ccc(CNCc3nccs3)cc2)c[nH]1)Nc1ccccc1OC(F)(F)F` [Compound 291], for which the MIC is > 16 µg/mL.
In the case of `NCCCNCc1ccc(-c2c[nH]c(NC(=O)Nc3cc(F)c(F)cc3F)nc2=O)cc1` [Compound 239] it was > 16 µg/mL; in that of `CN(CCCN(CCCN)Cc1ccc(-c2c[nH]c(NC(=O)Nc3cc(F)c(F)cc3F)nc2=O)cc1)C(=N)N` [Compound 366], > 16 µg/mL; in that of `NCCCNCc1ccc(-c2c[nH]c(NC(=O)Nc3ccc(Cl)cc3F)nc2=O)cc1F` [Compound 436], < 16 µg/mL.
For the molecule `N=C(N)NCCCCCN1CCC(c2c[nH]c(Nc3nc4ccccc4[nH]3)nc2=O)CC1` [Compound 503], the MIC is > 16 µg/mL.
The result for `N=C(N)NCCC[C@H](N)CCCn1ccc(NC(N)=O)nc1=O` [Compound 121] reads > 16 µg/mL; that for `NCCCN1CCN(C(=O)Cc2c[nH]c(NC(=O)Nc3ccccc3OC(F)(F)F)nc2=O)CC1` [Compound 405], > 16 µg/mL; that for `CN(C)CCCOc1ccccc1NC(=O)Nc1nc(=O)c(-c2ccc(CNCCCN)cc2)c[nH]1` [Compound 1291], > 16 µg/mL.
The result for `NCCCN(Cc1ccncc1)Cc1ccc(-c2c[nH]c(NC(=O)Nc3ccccc3OC(F)(F)F)nc2=O)cc1` [Compound 338] reads < 16 µg/mL; that for `N=C(N)NCCCCCN1CCN(c2c[nH]c(Nc3nc4ccccc4[nH]3)nc2=O)CC1` [Compound 515], > 16 µg/mL.
The result for `NCc1ccc(-n2ccc(NC(=O)NC3CCCNC3)nc2=O)cc1` (stereo not shown) [Compound 1305] reads > 16 µg/mL; that for `NCCCNCc1ccc(-c2c[nH]c(Nc3nc4ccccc4o3)nc2=O)cc1F` [Compound 588], < 16 µg/mL.
Regarding `CC(C)=CCN(CCCN)Cc1ccc(-c2c[nH]c(NC(=O)Nc3cc(F)c(F)cc3F)nc2=O)cc1` [Compound 303], the MIC was < 16 µg/mL.
The result for `NCCCNCc1ccc(-c2c[nH]c(Nc3nc4cc(F)c(F)cc4o3)nc2=O)cc1F` [Compound 471] reads < 16 µg/mL.
`NCCCNCc1ccc(-c2c[nH]c(NC(=O)Nc3ccccc3OC(F)(F)F)nc2=O)cc1` [Compound 278]: the MIC was < 16 µg/mL.
For `NCCCN(CCCOC(=O)Nc1ccccc1OC(F)(F)F)Cc1ccc(-c2c[nH]c(NC(=O)Nc3ccccc3OC(F)(F)F)nc2=O)cc1` [Compound 305], the MIC is > 16 µg/mL.
In the case of `NCCCCNC1CCN(c2c[nH]c(NC(=O)Nc3ccccc3OC(F)(F)F)nc2=O)CC1` [Compound 599] it was > 16 µg/mL; in that of `NCCN(CCN)CCCN1CC=C(n2ccc(NC(N)=O)nc2=O)CC1` [Compound 153], > 16 µg/mL.
As to `NCCCNCc1ccc(-n2ccc(N)nc2=O)cc1` [Compound 132], the MIC is > 16 µg/mL.
Take `N=C(N)NCCCN(CCC1CC1)Cc1ccc(-c2c[nH]c(NC(=O)Nc3cc(F)c(F)cc3F)nc2=O)cc1` [Compound 680]: the MIC was > 16 µg/mL.
The result for `N=C(N)NCCCNCc1ccc(-c2c[nH]c(NC(=O)Nc3cccc(Cl)c3F)nc2=O)cn1` [Compound 593] reads < 16 µg/mL; that for `N=C(Nc1ccccc1)Nc1nc(=O)c(-c2ccc(CNCCCN)c(F)c2)c[nH]1` [Compound 573], > 16 µg/mL; that for `NCCCCCN1CCC(c2c[nH]c(NC(=O)Nc3cccc(Cl)c3F)nc2=O)CC1` [Compound 549], > 16 µg/mL.
Consider `NCCCNCc1ccc(-c2c[nH]c(NC(=O)Nc3cccc(-n4cccc4)c3)nc2=O)cc1F` [Compound 418], for which the minimal inhibitory concentration (MIC) was > 16 µg/mL.
As for `NCCCC[C@@H](N)CCn1ccc(N)nc1=O` [Compound 115], the MIC was > 16 µg/mL.
On to `O=C(Nc1nc(=O)c(-c2ccc(CNCC3CC3)cc2)c[nH]1)Nc1cc(F)c(F)cc1F` [Compound 275], for which the MIC is > 16 µg/mL.
As to `CN(C(=O)C[C@H](CCCNC(=N)N)NC(=O)CCc1c[nH]cn1)C1CNC(NC(N)=O)=NC1=O` (stereo partly shown) [Compound 111], the minimum inhibitory concentration (MIC) was > 16 µg/mL.
In the case of `NCCCN(CCCN)Cc1c(F)cc(-c2c[nH]c(NC(=O)Nc3ccccc3OC(F)(F)F)nc2=O)cc1F` [Compound 294] it was < 16 µg/mL.
As for `NCCCN(CCCN)Cc1ccc(-c2c[nH]c(Nc3nc4ccc(C(F)(F)F)cc4o3)nc2=O)cc1F` [Compound 404], the MIC is > 16 µg/mL.
The result for `N=C(N)NCCCCN1CCN(c2c[nH]c(Nc3nc4ccccc4[nH]3)nc2=O)CC1` [Compound 531] reads > 16 µg/mL; that for `NC(=O)NCCCNCc1ccc(-c2c[nH]c(NC(=O)Nc3ccccc3OC(F)(F)F)nc2=O)cc1` [Compound 374], > 16 µg/mL; that for `NCCCNCc1ccc(-c2c[nH]c(NC(=O)Nc3ccccc3OC(F)(F)F)nc2=O)cc1F` [Compound 246], < 16 µg/mL.
`CN1CCN(C2CCN(c3ccc(NC(=O)Nc4nc(=O)c(-c5ccc(CN(CCCN)CCCN)cc5)c[nH]4)cc3)CC2)CC1` [Compound 209]: the MIC was < 16 µg/mL.
In the case of `NCCCN1CCC[C@H](NC(=O)Nc2nc(=O)c(-c3ccc(CN)cc3)c[nH]2)C1` [Compound 1303] it was > 16 µg/mL; in that of `NCCCN(CCC(=O)O)Cc1ccc(-c2c[nH]c(NC(=O)Nc3cc(F)c(F)cc3F)nc2=O)cc1` [Compound 320], > 16 µg/mL.
In the case of `NCCCCOc1nccc(N)n1` [Compound 128] it was > 16 µg/mL.
With `NCCCNCc1ccc(-c2c[nH]c(NC(=O)Nc3cc(F)cc(C(F)(F)F)c3)nc2=O)cc1F` [Compound 482], the MIC was > 16 µg/mL.
In the case of `NCCCN(CCCN)Cc1ccc(-c2c[nH]c(NC(=O)Nc3ccc(C(F)(F)F)cc3)nc2=O)cc1` [Compound 172] it was < 16 µg/mL.
The result for `NCCCNCc1ccc(-n2cc(F)c(NC(N)=O)nc2=O)cc1` [Compound 138] reads > 16 µg/mL.
In the case of `NCCCNCc1ccc(-c2c[nH]c(NC(=O)Nc3cccc(Cl)c3Cl)nc2=O)cc1F` [Compound 252] it was < 16 µg/mL; in that of `CC(C)=CCNCc1ccc(-c2c[nH]c(NC(=O)Nc3cc(F)c(F)cc3F)nc2=O)cc1` [Compound 317], > 16 µg/mL.
On to `NCc1ccc(-c2c[nH]c(NC(=O)NC3CCCN(CCO)C3)nc2=O)cc1` (stereo not shown) [Compound 1317], for which the minimum inhibitory concentration (MIC) is > 16 µg/mL.
The result for `N=C(N)NCCCCCN1CCN(c2c[nH]c(NC(=O)Nc3cccc(Cl)c3F)nc2=O)CC1` [Compound 502] reads > 16 µg/mL.
The result for `NCCCNCc1ccc(-c2c[nH]c(NC(=O)Nc3cc(F)c(F)cc3F)nc2=O)c(F)c1` [Compound 434] reads > 16 µg/mL.
The result for `NCCCN(Cc1ccc(-c2c[nH]c(NC(=O)Nc3ccccc3OC(F)(F)F)nc2=O)cc1)Cc1nccs1` [Compound 340] reads > 16 µg/mL; that for `NCCCN(CCCN)Cc1ccc(-c2c[nH]c(Nc3nc4cc(F)c(F)cc4[nH]3)nc2=O)cc1` [Compound 468], < 16 µg/mL.
In the case of `NCCCNCc1ccc(-c2c[nH]c(NC(=O)Nc3ccccc3OCCCO)nc2=O)cc1` [Compound 1294], the MIC is > 16 µg/mL.
In the case of `NCCCNCc1ccc(-c2c[nH]c(NC(=O)NCCc3ccc(Cl)cc3Cl)nc2=O)cc1F` [Compound 420] it was < 16 µg/mL; in that of `O=C(Nc1nc(=O)c(-c2ccc(CNCC(O)CO)cc2)c[nH]1)Nc1ccccc1OC(F)(F)F` (stereo not shown) [Compound 283], > 16 µg/mL.
In the case of `O=C(Nc1nc(=O)c(CC(=O)N2CCNCC2)c[nH]1)Nc1ccccc1OC(F)(F)F` [Compound 409] it was > 16 µg/mL; in that of `NCCCN(Cc1ccc(-c2c[nH]c(NC(=O)Nc3ccccc3OC(F)(F)F)nc2=O)cc1)Cc1ncc[nH]1` [Compound 326], > 16 µg/mL.
As to `NCCCNCc1ccc(-c2c[nH]c(NC(=O)Nc3ccc(OC(F)F)cc3)nc2=O)cc1Cl` [Compound 244], the MIC is > 16 µg/mL.
As to `NCCCN(Cc1ccc(-c2c[nH]c(NC(=O)Nc3cc(F)c(F)cc3F)nc2=O)cc1)CC1CC1` [Compound 344], the minimal inhibitory concentration (MIC) was < 16 µg/mL.
The result for `NCC[C@H](N)C(=O)N1CCN(C2C=NC(NC(N)=O)=NC2=O)CC1` (stereo partly shown) [Compound 161] reads > 16 µg/mL.
As to `N=C(N)NCCCNCc1ccc(-c2c[nH]c(NC(=O)NC3CCN(Cc4cc(F)c(F)cc4F)C3)nc2=O)cc1` (stereo not shown) [Compound 735], the minimal inhibitory concentration (MIC) was > 16 µg/mL.
In the case of `N=C(N)NCC(NCCCN)c1ccc(-n2ccc(NC(N)=O)nc2=O)cc1` (stereo not shown) [Compound 156], the MIC is > 16 µg/mL.
The result for `NCCCNCc1ccc(-c2c[nH]c(Nc3nc4cc(F)c(F)cc4[nH]3)nc2=O)c(F)c1` [Compound 458] reads < 16 µg/mL; that for `N=C(N)NCCC[C@H](N)CCCn1ccc(N)nc1=O` [Compound 118], > 16 µg/mL; that for `N=C(N)NCc1ccc(-n2ccc(NC(N)=O)nc2=O)cc1` [Compound 126], > 16 µg/mL.
On to `Cn1ncc(C(=O)Nc2nc(=O)c(-c3ccc(CN(CCCN)CCCN)cc3)c[nH]2)c1Cl` [Compound 174], for which the MIC is > 16 µg/mL.

Source of the values: patent publication US9845297B2, “Antimicrobial compounds and methods of making and using the same” (Melinta Therapeutics, Inc., priority 2009, dated 2017).
